Measurements: patent US7632811B2, “Analogs of parathyroid hormone” (Societe de Conseils de Recherches et D'Applications …, priority 1995, dated 2009)
Non-standard residues stand in square brackets, D forms with d. Residues, ends and D or L forms follow the SMILES beside them. Cha = N[C@@H](CC1CCCCC1)C(=O)O; Nle = CCCC[C@H](N)C(=O)O; Aib = CC(C)(N)C(=O)O

Target: T1, PTH receptor present on SaOS-2 (human osteosarcoma cells) (Homo sapiens, UniProt Q03431)
T1 construct: host or cells: SaOS-2 human osteosarcoma cells (intact, confluent monolayers)
T1 sequence (Q03431 27-593): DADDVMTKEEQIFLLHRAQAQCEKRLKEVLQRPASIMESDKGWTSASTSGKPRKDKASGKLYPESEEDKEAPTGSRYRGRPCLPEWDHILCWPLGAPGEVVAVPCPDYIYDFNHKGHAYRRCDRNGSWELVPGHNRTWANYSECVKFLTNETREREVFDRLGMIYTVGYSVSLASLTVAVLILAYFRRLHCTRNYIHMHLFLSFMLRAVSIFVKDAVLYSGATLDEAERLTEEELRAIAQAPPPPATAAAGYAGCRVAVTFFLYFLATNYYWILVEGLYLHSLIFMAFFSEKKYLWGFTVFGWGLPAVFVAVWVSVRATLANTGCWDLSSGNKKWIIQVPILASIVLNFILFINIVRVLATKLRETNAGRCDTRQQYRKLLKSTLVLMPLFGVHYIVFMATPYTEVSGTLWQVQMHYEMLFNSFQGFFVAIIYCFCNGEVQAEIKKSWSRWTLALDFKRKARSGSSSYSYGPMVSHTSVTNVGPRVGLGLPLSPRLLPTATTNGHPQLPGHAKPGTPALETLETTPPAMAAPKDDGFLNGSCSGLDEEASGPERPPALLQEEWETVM
Assay: Binding to PTH receptor on SaOS-2 cells (competition with mono-125I-[Nle8,18,Tyr34(3-125I)]bPTH(1-34)NH2)
Conditions: Table I, 2 hrs at room temperature, read-out: Kd (half maximal inhibition of binding of mono-125I-[Nle8,18, Tyr34(3-125I)]bPTH(1-34)NH2)
How it was run: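 Confluent SaOS-2 cells in 5% FBS RPMI were incubated 2 h at room temperature with 10×10^4 cpm mono-125I-[Nle8,18,Tyr34(3-125I)]bPTH(1-34)NH2 plus competing peptide at 10^−11 to 10^−4 M. After washing, cell-bound radioactivity was counted; Kd taken as half-maximal inhibition of tracer binding.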

Kd: 40 nM
SMILES: CCCC[C@H](NC(=O)[C@H](CC(=O)O)NC(=O)[C@H](CCC(N)=O)NC(=O)[C@H](CC(C)C)NC(=O)[C@H](CCCCN)NC(=O)[C@H](CCCCN)NC(=O)[C@H](CCCNC(=N)N)NC(=O)[C@H](CC(C)C)NC(=O)[C@H](Cc1c[nH]c2ccccc12)NC(=O)[C@H](CCC(=O)O)NC(=O)[C@@H](NC(=O)[C@H](CCCNC(=N)N)NC(=O)C(C)(C)NC(=O)[C@H](CCCC)NC(=O)[C@H](CO)NC(=O)C(C)(C)NC(=O)[C@H](CC(C)C)NC(=O)[C@H](Cc1c[nH]cn1)NC(=O)[C@H](CCCCN)NC(=O)CNC(=O)[C@H](CC1CCCCC1)NC(=O)[C@H](CC(N)=O)NC(=O)[C@H](Cc1c[nH]cn1)NC(=O)[C@H](CCCC)NC(=O)[C@H](CC1CCCCC1)NC(=O)[C@H](CCC(N)=O)NC(=O)[C@@H](NC(=O)[C@H](CCC(=O)O)NC(=O)[C@H](CO)NC(=O)[C@@H](NC(=O)[C@@H](N)CO)C(C)C)[C@@H](C)CC)C(C)C)C(=O)N[C@@H](Cc1c[nH]cn1)C(=O)N[C@@H](CC(N)=O)C(=O)N[C@@H](Cc1ccc(O)cc1)C(N)=O [[Cha^7,11, Nle^8,18,31, Aib^16,19, Tyr^34]hPTH(1-34)NH2] (H-SVSEIQ[Cha][Nle]HN[Cha]GKHL[Aib]S[Nle][Aib]RVEWLRKKLQD[Nle]HNY-NH2)
